Source: US20170050966A1, “INHIBITING THE TRANSIENT RECEPTOR POTENTIAL A1 ION CHANNEL” (HYDRA BIOSCIENCES, INC., priority 2014, published 2017)
In brackets after ≈: the same amount, converted by molar mass. Read-outs that look alike come from different tables or passages of the source.

What was measured:
[1] = Kinetic solubility in buffered solutions; type: physicochemical; details: aqueous buffer, kinetic from dmso stock, 24 hours ambient
Procedure: The solubilities of the compounds of Formula (I) were tested using the procedure outlined in Kerns, E. H., J Pharm Sci (2001) 90:1838-1858, incorporated herein by reference and described below. Data for solubility was obtained by this method for compounds of Formula (I) and included in Table 3. The chromatographic data was performed by HPLC using an Xbridge Shield RP18 column with the following column dimensions: 4.6×30 mm, 3.5 μm. The mobile phase consisted of deionized water (MPA) with trifluoroacetic acid added in at 0.1% (v/v) (MPC) and HPLC-grade acetonitrile (MPB). The mobile phase flow rate was 2.5 mL/min with the column and sampling operating at ambient temperature. UV detection was set to 280 nm.
Samples for analysis of the compounds of Formula (I) were prepared at a % v/v=1/19 (i.e., 10 μL of the stock solution into 190 μL of buffer) by spiking stock solutions of the compounds of Formula (I) into buffered solutions. Three buffered solution systems were prepared: pH 4.0 prepared from 50 mM sodium acetate in a 5% dextrose in water solution, pH 7.4 prepared from 75 mM sodium phosphate in a 1:1 ratio of sterilized water for injection to a 5% dextrose in water solution, and pH 9.0 prepared from 50 mM sodium bicarbonate in a 1:2 ratio of sterilized water for injection to a 5% dextrose in water solution. The samples were incubated on a microplate shaker at 300 rpm for 24 hours at ambient temperature. Following incubation, the samples were centrifuged for five minutes at 13 k rpm at ambient temperature. The resulting supernantant was extracted for HPLC analysis.

[2] = tested on: formalin model in the rat; experiment: Formalin-induced pain test; type: in vivo
Procedure: Compound 2 was tested in the formalin-induced pain test reported by Dubuisson et al., Pain (1977) December; 4(2):161-74. Dubuisson et al describe a method for assessing pain and analgesia in rats and cats. Briefly, dilute formalin (50 μL of 3% formalin) is injected into the plantar surface of the hind paw of a rat. […] The initial phase (Phase I: 0-5 min) is thought to have a significant component that is dependent upon direct activation of afferent fibers by formalin and functional TRPA1 (McNamara et al., 2007). The individual responsible for counting the pain behaviors in a particular study is blinded to the treatment groups.
Investigators studied oral administration of Compound 2 at 1, 3 and 10 mg/kg on pain behaviors in the formalin model in the rat. Compound 2 was prepared as solutions in 4% DMSO, 10% Solutol HS15, 86% WFI. Animals were dosed orally with Vehicle (4% DMSO, 10% Solutol, 86% WFI), or Compound 2 at 1, 3 or 10 mg/kg one hour prior to intraplantar formalin. […] (n=8 per group) (*=p<0.05, **=p<0.01, *** p<0.001: 1-tailed T-test)
A reduction in the duration of pain behaviors was also observed with Compound 4 from 0-5 minutes post-formalin administration. Using the methods described above for the formalin assay, Compound 4 was formulated as a solution in 4% DMSO; 5% Tween-80; 20% Cremophor EL; and 71% WFI and administered by oral gavage to rats.
Using the methods described above for the formalin assay, Compound 4 was formulated as a suspension in 0.5% methylcellulose and administered by oral gavage to rats.
The persistence of the response was also studied. Compound 2 was prepared as a solution in 4% DMSO, 10% Solutol HS15, and 86% WFI. Rats were treated with 10 mg/kg of oral doses of Compound 2 or with the vehicle (PO).

CYP2D6 = CYP2D6 (Homo sapiens, UniProt P10635); experiment: P450 Cyp-inhibition luminescent assay; type: biochemical
Procedure: (§1) The ability of Compound 2 to inhibit human CYP450 enzymes was evaluated. Compound 1 and Compound 2 were tested in standard P450 Cyp-inhibition luminescent assay.

CYP3A4 = CYP3A4 (Homo sapiens, UniProt P08684); experiment: P450 Cyp-inhibition luminescent assay; type: biochemical
Procedure: as §1

Sequence of CYP3A4 (P08684 whole entry): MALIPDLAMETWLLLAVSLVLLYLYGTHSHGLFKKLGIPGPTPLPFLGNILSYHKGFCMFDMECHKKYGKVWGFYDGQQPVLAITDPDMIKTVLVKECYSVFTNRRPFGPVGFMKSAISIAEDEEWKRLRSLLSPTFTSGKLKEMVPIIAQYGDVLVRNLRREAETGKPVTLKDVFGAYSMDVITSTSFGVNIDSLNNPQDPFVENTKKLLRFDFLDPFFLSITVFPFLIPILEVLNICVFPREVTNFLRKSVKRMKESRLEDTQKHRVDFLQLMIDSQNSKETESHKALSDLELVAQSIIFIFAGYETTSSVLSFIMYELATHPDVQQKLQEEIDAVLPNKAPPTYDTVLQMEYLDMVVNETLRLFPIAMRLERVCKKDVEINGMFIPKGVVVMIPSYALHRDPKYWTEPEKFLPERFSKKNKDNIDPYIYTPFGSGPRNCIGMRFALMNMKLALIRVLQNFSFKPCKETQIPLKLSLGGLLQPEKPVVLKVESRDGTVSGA
Sequence of CYP2D6 (P10635 whole entry): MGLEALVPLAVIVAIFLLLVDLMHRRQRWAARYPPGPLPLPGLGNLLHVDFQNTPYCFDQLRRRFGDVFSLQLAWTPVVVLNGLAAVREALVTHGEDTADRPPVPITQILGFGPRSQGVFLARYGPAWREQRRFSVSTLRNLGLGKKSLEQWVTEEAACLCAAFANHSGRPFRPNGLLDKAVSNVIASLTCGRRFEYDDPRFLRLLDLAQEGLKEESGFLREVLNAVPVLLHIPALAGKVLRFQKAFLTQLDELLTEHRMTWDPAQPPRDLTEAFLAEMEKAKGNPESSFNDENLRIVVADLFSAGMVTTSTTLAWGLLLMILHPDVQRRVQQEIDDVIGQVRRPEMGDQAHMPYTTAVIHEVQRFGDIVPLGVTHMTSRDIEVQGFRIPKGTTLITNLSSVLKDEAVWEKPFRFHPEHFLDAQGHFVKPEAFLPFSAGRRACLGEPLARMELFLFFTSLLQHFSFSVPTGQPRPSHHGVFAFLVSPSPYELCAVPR

solubility kinetic at 24 h ([1]; sodium acetate buffer, pH 4.0, 50 mM sodium acetate, read-out: pH 4.0 solubility): 4 µg/mL (≈ 7.93 µM)
solubility kinetic at 24 h ([1]; sodium bicarbonate buffer, pH 9.0, 50 mM sodium bicarbonate, read-out: pH 9.0 solubility): 2 µg/mL (≈ 3.96 µM)
solubility kinetic at 24 h ([1]; sodium phosphate buffer, pH 7.4, 75 mM sodium phosphate, read-out: pH 7.4 solubility): 3 µg/mL (≈ 5.95 µM)
CYP 2D6: % Inhibition (CYP2D6): 9%
CYP 3A4: % Inhibition (CYP3A4): 26.9%
Compound: C[C@@H](C(=O)Nc1ccnc(-c2cnc(N3CCCC3(C)C)nc2)n1)n1cnc2c1c(=O)n(C)c(=O)n2C [Compound 1, (S)-2-(1,3-dimethyl-2,6-dioxo-2,3-dihydro-1H-purin-7(6H)-yl)-N-(2′-(2,2-dimethylpyrrolidin-1-yl)-[2,5′-bipyrimidin]-4-yl)propanamide]
Duration 0-2 min ([2]; 1 mg/kg IV): 35.50 s
Duration 0-5 min ([2]; 1 mg/kg IV): 153.25 s
Duration 0-2 min ([2]; 3 mg/kg IV): 6.25 s
Duration 0-5 min ([2]; 3 mg/kg IV): 111.25 s
